# Reference: paper PMC9695682, “Flavonoids from Piper Species as Promising Antiprotozoal Agents against Giardia intestinalis: Structure-Activity Relationship and Drug-Likeness Studies” (Pharmaceuticals, 2022)
# Like-named read-outs stand apart in the source and are kept apart here.
# Key:
# Assay type in all cases: cell-based
# [1] = Cytotoxicity assay on murine macrophages (resazurin, 48 h); conditions: mouse, J774 cell line, 48 h
# Method: (§1) A., Madrid, Spain) at 37 °C and 5% CO2 air atmosphere. The assay was carried out according to a previously described method. […] Growth controls and signal-to-noise were also included. Afterward, a volume of 20 μL of 2.5 mM resazurin solution in PBS was added, and plates were placed again in the incubator for another 3 h to evaluate cell viability. The reduction of resazurin was determined by fluorometry as in the promastigote assay. Each concentration was assayed in triplicate. […] All values were expressed as means ± standard error of the mean (S.E.M.). Statistically significant differences between treated and control samples were tested by one-way analysis of variance (ANOVA).
# [2] = tested on: murine macrophage J774 cell line; experiment: as above; conditions: for SI: selectivity index (CC50/IC50): J774 macrophages vs G. intestinalis, pure flavonoids (Table 4)
# Method: as §1
# [3] = tested on: Giardia intestinalis trophozoites; experiment: In vitro assay on trophozoite form of Giardia intestinalis (resazurin, 48 h); conditions: for IC50: Giardia duodenalis, trophozoites, 48 h, read-out: G. intestinalis IC50
# Method: Trophozoites of Giardia (strain ATCC® 203333) were grown in modified TYI-S-33 medium at pH 7.0, supplemented with 10% heat-inactivated fetal calf serum and 0.5 g bovine bile (Sigma-Aldrich, St Louis, MO, USA), in 20 mL screw-cap culture vials. The assay was carried out according to a previously described method. Detachment of trophozoites for preparation of inoculant was achieved by chilling the cultures on ice for 20 min. Trophozoites (5 × 10^4 parasites/well) were cultured in 96-well plastic plates (Sarstedt, Nümbrecht, Germany). Compounds were dissolved in DMSO. […] To evaluate cell viability, the fluorescence intensity (535 nm-excitation wavelength- and 590 nm-emission wavelength) was determined with a fluorimeter Infinite 200 (Tecan i-Control, Tecan Ibérica Instrumentation S.L., Barcelona, Spain) to calculate the growth inhibition rate (%). All tests were carried out in triplicate. Metronidazole was used as a reference drug. […] All values were expressed as means ± standard error of the mean (S.E.M.). Statistically significant differences between treated and control samples were tested by one-way analysis of variance (ANOVA).
# [4] = J774 macrophage cell line, pure flavonoids
Compound,IC50 ([3]; pure flavonoids) [µM],"IC50 ([3]; extract, fractions and sub-fractions of Piper delineatum leaves) [µg/mL]","CC50 at 48 h [1, 4] [µM]",SI: selectivity index (CC50/IC50) [2],Antiparasitic potency relative to metronidazole ([3]; IC50 ratio to the reference drug metronidazole) [fold],CC50 at 48 h ([1]; pure flavonoids) [µM],"CC50 at 48 h ([1]; J774 macrophage cell line, extract, fractions and sub-fractions) [µg/mL]",Macrophages CC50 [2] [µg/mL]
"COc1cc(O)cc(O)c1C(=O)/C=C/c1cccc(O)c1 [Compound 1, 2′,4′,3-Trihydroxy-6′-methoxychalcone]",7 ± 0.1,,12.9 ± 0.2,1.8,,,,
"COc1cc(O)c(OC)c(O)c1C(=O)/C=C/c1cccc(O)c1 [Compound 2, 2′,4′,3-Trihydroxy-3′,6′-dimethoxychalcone]",47.7 ± 1.2,,184 ± 2.6,3.9,,,,
"COc1cc(O)cc(/C=C/C(=O)c2c(O)cc(O)cc2OC)c1 [Compound 3, 2′,4′,3-Trihydroxy-6′,5-dimethoxychalcone]",6 ± 0.3,,12 ± 0.1,,,,,
"COc1cc(O)cc(/C=C/C(=O)c2c(O)cc(OC)cc2OC)c1 [Compound 4, 2′,3-Dihydroxy-4′,6′,5-trimethoxychalcone]",0.061 ± 0.001,,14.2 ± 0.2,233,41,,,
"COc1cccc(/C=C/C(=O)c2c(O)cc(O)cc2OC)c1 [Compound 7, 2′,4′-dihydroxy-3,6′-dimethoxychalchone]",4.7 ± 0.1,,15.7 ± 0.2,,,,,
"COc1cc(O)cc(O)c1C(=O)/C=C/c1ccccc1 [Compound 8, 2′,4′-dihydroxy-6′-methoxychalchone]",9.6 ± 0.2,,,,,37.8 ± 1.1,,
"COc1cccc(/C=C/C(=O)c2c(O)cc(OC)cc2OC)c1 [Compound 9, 2′-hydroxy-3,4′,6′-trimethoxychalchone]",10.8 ± 0.1,,22.6 ± 0.5,,,,,
"COc1cccc(/C=C/C(=O)c2c(OC)cc(O)c(OC)c2O)c1 [Compound 10, 2′,4′-dihydroxy-3,3′,6′-trimethoxychalcone]",32.7 ± 1.3,,44.2 ± 0.7,1.4,,,,
"COc1cc(O)c2c(c1)O[C@H](c1ccc(O)cc1)CC2=O [Compound 23, sakuranetin]",52.4 ± 2.1,,,3.5,,184 ± 2.3,,
EtOH,,,,,,,,7.1 ± 0.6

# More lines, main results first:
IC50 ([3]; pure flavonoids) [µM],"IC50 ([3]; extract, fractions and sub-fractions of Piper delineatum leaves) [µg/mL]",Compound,"CC50 at 48 h [1, 4] [µM]",SI: selectivity index (CC50/IC50) [2],Antiparasitic potency relative to metronidazole ([3]; IC50 ratio to the reference drug metronidazole) [fold],CC50 at 48 h ([1]; pure flavonoids) [µM],"CC50 at 48 h ([1]; J774 macrophage cell line, extract, fractions and sub-fractions) [µg/mL]",Macrophages CC50 [2] [µg/mL]
22.5 ± 0.8,,"COc1cc(O)cc(/C=C/C(=O)c2c(OC)cc(OC)c(O)c2O)c1 [Compound 11, 2′,3′,5-trihydroxy-4′,6′,3-trimethoxychalcone]",48.5 ± 0.8,2.2,,,,
7.3 ± 0.6,,"COc1cc(OC)c(C(=O)/C=C/c2ccccc2)c(O)c1O [Compound 12, 2′,3′-dihydroxy-4′,6′-dimethoxychalchone]",25.3 ± 0.4,3.5,,,,
10.4 ± 0.2,,"COc1cc(/C=C/C(=O)c2c(O)cc(O)cc2OC)ccc1O [Compound 14, 2′,4′,4-trihydroxy-3,6′-dimethoxychalchone]",16.5 ± 0.03,1.6,,,,
70.5 ± 0.3,,"COc1cc(O)cc(O)c1C(=O)CCc1ccccc1 [Compound 16, uvangoletin]",> 367,>5.2,,,,
49.3 ± 0.9,,"COc1cccc(C2CC(=O)c3c(OC)cc(OC)cc3O2)c1 (stereo not drawn) [Compound 24, 5,7,3′-trimethoxyflavanone]",144 ± 2.3,2.9,,,,
2.5 ± 0.1,0.4 ± 0.1,"Cc1ncc([N+](=O)[O-])n1CCO [Metronidazole, reference compound]",> 584,>233,,,233,
